Experimental data: ChEMBL document CHEMBL5724914, “Linking interpersonal differences in gut microbiota composition and drug biotransformation activity” (2024)

What was measured:
[1] = (§1) The drug is tested on WLS-098 corresponding to human gut metagenome with ENA study accession number: PRJEB37062 and ENA sample accession number: ERS12561754 for biotransformation under anaerobic condition. The drug concentrations were measured over 9 timepoints collected between 0 and 24 hours of incubation by liquid-chromatography-coupled mass spectrometry (LC–MS); settings: 2 µM
[2] = human gut metagenome, 24 h, 2 µM
[3] = as §1, with “WLS-240” for “WLS-098”, “ERS12561773” for “ERS12561754”; settings: 2 µM
[4] = human gut metagenome, 24 h, 2 µM; remark: listed apart in the source
[5] = as §1, with “WLS-350” for “WLS-098”, “ERS12561789” for “ERS12561754”; settings: 2 µM
[6] = human gut metagenome, 24 h, 2 µM; remark: listed apart in the source
[7] = as §1, with “WLS-370” for “WLS-098”, “ERS12561793” for “ERS12561754”; settings: 2 µM
[8] = human gut metagenome, 24 h, 2 µM; remark: listed apart in the source
[9] = as §1, with “WLS-038” for “WLS-098”, “ERS12561745” for “ERS12561754”; settings: 2 µM
[10] = as §1, with “Z-029” for “WLS-098”, “rat” for “human”, “ERS12561828” for “ERS12561754”; settings: 2 µM
[11] = human gut metagenome, 24 h, 2 µM; remark: listed apart in the source
[12] = as §1, with “Z-002” for “WLS-098”, “rabbit” for “human”, “ERS12561802” for “ERS12561754”; settings: 2 µM
[13] = human gut metagenome, 24 h, 2 µM; remark: listed apart in the source
[14] = human gut metagenome, 24 h, 2 µM; remark: listed apart in the source
[15] = as §1, with “Z-013” for “WLS-098”, “rabbit” for “human”, “ERS12561813” for “ERS12561754”; settings: 2 µM
[16] = as §1, with “Z-028” for “WLS-098”, “mouse” for “human”, “ERS12561827” for “ERS12561754”; settings: 2 µM
[17] = as §1, with “WLS-082” for “WLS-098”, “ERS12561751” for “ERS12561754”; settings: 2 µM
[18] = as §1, with “Z-018” for “WLS-098”, “pig” for “human”, “ERS12561817” for “ERS12561754”; settings: 2 µM
[19] = as §1, with “Z-010” for “WLS-098”, “to” for “to human gut”, “ERS12561810” for “ERS12561754”; settings: 2 µM
[20] = as §1, with “Z-012” for “WLS-098”, “to” for “to human gut”, “ERS12561812” for “ERS12561754”; settings: 2 µM

Measured: Bacterial Biotransformation
Also: call rule not given here.

CN1CCc2cccc3c2[C@H]1Cc1ccc(O)c(O)c1-3 [APOMORPHINE]
Compound metabolized: [15]
not listed: [16] | [17] | [18] | [19] | [20]
Compound NOT metabolized: all other assays above

C[C@@H]1CC[C@H]2[C@@H](C)C(=O)O[C@@H]3O[C@@]4(C)CC[C@@H]1[C@]32OO4 [ARTEMISININ]
Compound NOT metabolized: [2]
not listed: [5] | [8] | [12] | [13] | [15] | [19] | [20]
Compound metabolized: all other assays above

C#C[C@]1(O)CC[C@H]2[C@@H]3CCC4=Cc5oncc5C[C@]4(C)[C@H]3CC[C@@]21C [DANAZOL]
Compound NOT metabolized: [10]
Compound metabolized: [16] | [17] | [2] | [3] | [9] | [11] | [19]

COc1c2occc2cc2ccc(=O)oc12 [METHOXSALEN]
Compound NOT metabolized: [10]
not listed: [8] | [17]
Compound metabolized: all other assays above

CN1C(=O)CC(C)(c2ccccc2)C1=O (configuration not stated) [METHSUXIMIDE]
Compound metabolized: [3] | [14]
not listed: [10]
Compound NOT metabolized: all other assays above

COc1ccccc1N1CCN(CC(O)COc2cccc3ccccc23)CC1 (configuration not stated) [NAFTOPIDIL]
Compound metabolized: [16]
not listed: [10]
Compound NOT metabolized: all other assays above

Cc1nc2n(c(=O)c1CCN1CCC(c3noc4cc(F)ccc34)CC1)CCCC2 [RISPERIDONE]
Compound NOT metabolized: [10]
not listed: [1] | [5] | [14]
Compound metabolized: all other assays above

CN(C)CCc1c[nH]c2ccc(Cn3cncn3)cc12.O=C(O)c1ccccc1 [RIZATRIPTAN BENZOATE]
not listed: [17]
Compound NOT metabolized: all other assays above

COc1ccc2[nH]c([S+]([O-])Cc3ncc(C)c(OC)c3C)nc2n1 (configuration not stated) [TENATOPRAZOLE]
Compound NOT metabolized: [5] | [11] | [12] | [13]
not listed: [8]
Compound metabolized: all other assays above
